Data published in PMC3265250 (Chemotherapy Research and Practice, 2011).
Converted amounts (≈) assume the structure as drawn. Read-outs that look alike come from different tables or passages of the source. Positions of bridges follow the written chain, without caps; N, C: chain ends. Residues, ends and D or L forms follow the SMILES beside them. No end group written: not given here.

Tests used:
[1] = tested on: Superantigen positive S. aureus (14); experiment: microbe, parasite or virus in culture; conditions: Staphylococcus aureus; for MIC50 / MIC90 / MIC: 18 h; for MIC: read-out: MIC Range
S. aureus ATCC 9144 = experiment: MIC, microbroth dilution, referential strain ATCC 9144; assay type: cell-based, Staphylococcus aureus
[2] = tested on: Superantigen negative S. aureus (10); conditions: for MIC 50% / MIC 90% / MIC Range: microbroth dilution, MHB II, 5 × 10^5 CFU/mL, 18 h at 37°C
[3] = tested on: Superantigen negative S. aureus (10); experiment: microbe, parasite or virus in culture; conditions: Staphylococcus aureus; for MIC50 / MIC90 / MIC: 18 h; for MIC: read-out: MIC Range
S. aureus ATCC 6538P = experiment: MIC, microbroth dilution, referential strain ATCC 6538P; assay type: cell-based, Staphylococcus aureus
Description: (§1) A total number of 24 SA strains were obtained from patients with erythrodermia and 3 reference SA ones from the American Type Culture Collection: 6538P ATCC, 9144 ATCC, and 25923 ATCC (Institute of Experimental Therapy, Wroclaw, Poland). […] Polypropylene 96-well plates (Sigma-Aldrich) were incubated for 18 h at 37°C. MIC was taken as the lowest drug concentration at which a noticeable growth was inhibited. […] The experiments were performed in triplicate.

S. aureus ATCC 25923 = experiment: MIC, microbroth dilution, referential strain ATCC 25923; assay type: cell-based, Staphylococcus aureus
Description: as §1

[4] = tested on: Superantigen positive S. aureus (14); conditions: for MIC Range / MIC 50% / MIC 90%: microbroth dilution, MHB II, 5 × 10^5 CFU/mL, 18 h at 37°C
clinical isolates of SA = conditions: 18 h
[5] = Staphylococcus aureus, ATCC9144, ATCC 9144, microbroth dilution, MHB II, 5 × 10^5 CFU/mL, 18 h at 37°C, triplicate, read-out: MIC
[6] = superantigen negative clinical isolates (10), more than 99.9% reduction of the initial inoculums, triplicate
[7] = Staphylococcus aureus, ATCC6538P, ATCC 6538P, microbroth dilution, MHB II, 5 × 10^5 CFU/mL, 18 h at 37°C, triplicate, read-out: MIC
[8] = Staphylococcus aureus, ATCC25923, ATCC 25923, microbroth dilution, MHB II, 5 × 10^5 CFU/mL, 18 h at 37°C, triplicate, read-out: MIC
[9] = superantigen positive clinical isolates (14), more than 99.9% reduction of the initial inoculums, triplicate
[10] = superantigen positive clinical isolates (14), triplicate
[11] = ATCC 9144, microbroth dilution, MHB II, 5 × 10^5 CFU/mL, 18 h at 37°C, triplicate
[12] = superantigen negative clinical isolates (10), triplicate
[13] = ATCC 6538P, microbroth dilution, MHB II, 5 × 10^5 CFU/mL, 18 h at 37°C, triplicate
[14] = ATCC 25923, microbroth dilution, MHB II, 5 × 10^5 CFU/mL, 18 h at 37°C, triplicate

Compound	MIC50 [1] [µg/mL]	MIC90 [1] [µg/mL]	MIC [1] [µg/mL]	MIC90 ([1]; read-out: MICs 90%) [µg/mL]	MBC ([1]; read-out: MBC 50%) [µg/mL]	MBC ([1]; read-out: MBC 90%) [µg/mL]	MIC (S. aureus ATCC 9144; [5]) [µg/mL]	MBC Range [2, 6] [µg/mL]	MIC50 [3] [µg/mL]	MIC90 [3] [µg/mL]	MIC [3] [µg/mL]	MIC90 ([3]; read-out: MICs 90%) [µg/mL]	MBC ([3]; read-out: MBC 50%) [µg/mL]	MBC ([3]; read-out: MBC 90%) [µg/mL]	MIC (S. aureus ATCC 6538P; [7]) [µg/mL]	MIC (S. aureus ATCC 25923; [8]) [µg/mL]	MBC Range [4, 9] [µg/mL]	MBC 50% [2] [µg/mL]	MBC 90% [2] [µg/mL]	MBC 50% [4] [µg/mL]	also measured
O=C(N[C@H](CO)[C@H](O)c1ccc([N+](=O)[O-])cc1)C(Cl)Cl [Chloramphenicol, chloramphenicol]	8 (≈ 24.8 µM)	64 (≈ 198 µM)	4 to 128 (≈ 12.4 to 396 µM)	64 (≈ 198 µM)	16 (≈ 49.5 µM)	128 (≈ 396 µM)	4 (≈ 12.4 µM)	8 to 32	4 (≈ 12.4 µM)	32 (≈ 99 µM)	2 to 32 (≈ 6.19 to 99 µM)	32 (≈ 99 µM)	8 (≈ 24.8 µM)	32 (≈ 99 µM)	4 (≈ 12.4 µM)	4 (≈ 12.4 µM)	8 to 128	–	–	–	–
O=C(O)c1cn(C2CC2)c2cc(N3CCNCC3)c(F)cc2c1=O [Ciprofloxacin, ciprofloxacin]	–	–	–	–	–	–	–	–	–	–	–	–	–	–	1 (≈ 3.02 µM)	1 (≈ 3.02 µM)	–	–	–	–	–
CCC[C@@H]1C[C@@H](C(=O)N[C@@H]([C@H]2O[C@H](SC)[C@H](O)[C@@H](O)[C@H]2O)[C@H](C)Cl)N(C)C1 [Clindamycin, clindamycin]	64 (≈ 151 µM)	512 (≈ 1200 µM)	8 to 512 (≈ 18.8 to 1200 µM)	512 (≈ 1200 µM)	64 (≈ 151 µM)	128 (≈ 301 µM)	2 (≈ 4.71 µM)	64 to 128	32 (≈ 75.3 µM)	32 (≈ 75.3 µM)	16 to 64 (≈ 37.6 to 151 µM)	32 (≈ 75.3 µM)	32 (≈ 75.3 µM)	64 (≈ 151 µM)	4 (≈ 9.41 µM)	2 (≈ 4.71 µM)	16 to 512	–	–	–	–
CC[C@H]1OC(=O)[C@H](C)[C@@H](O[C@H]2C[C@@](C)(OC)[C@@H](O)[C@H](C)O2)[C@H](C)[C@@H](O[C@@H]2O[C@H](C)C[C@H](N(C)C)[C@H]2O)[C@](C)(O)C[C@@H](C)C(=O)[C@H](C)[C@@H](O)[C@]1(C)O [Erythromycin, erythromycin]	1 (≈ 1.36 µM)	256 (≈ 349 µM)	–	256 (≈ 349 µM)	8 (≈ 10.9 µM)	128 (≈ 174 µM)	1 (≈ 1.36 µM)	–	0.5 (≈ 0.681 µM)	0.5 (≈ 0.681 µM)	0.25 to 64 (≈ 0.341 to 87.2 µM)	0.5 (≈ 0.681 µM)	1 (≈ 1.36 µM)	2 (≈ 2.73 µM)	1 (≈ 1.36 µM)	1 (≈ 1.36 µM)	4 to 512	–	–	–	MIC Range [4, 10]: 0.25 to 512 µg/mL
CC(=O)NC[C@H]1CN(c2ccc(N3CCOCC3)c(F)c2)C(=O)O1 [Linezolid, linezolid]	1 (≈ 2.96 µM)	2 (≈ 5.93 µM)	0.5 to 2 (≈ 1.48 to 5.93 µM)	2 (≈ 5.93 µM)	–	–	1 (≈ 2.96 µM)	–	1 (≈ 2.96 µM)	1 (≈ 2.96 µM)	0.5 to 2 (≈ 1.48 to 5.93 µM)	1 (≈ 2.96 µM)	–	–	0.5 (≈ 1.48 µM)	0.5 (≈ 1.48 µM)	–	–	–	–	–
CO[C@H]1/C=C/O[C@@]2(C)Oc3c(C)c(O)c4c(O)c(c(/C=N/N5CCN(C)CC5)c(O)c4c3C2=O)NC(=O)/C(C)=C\C=C\[C@H](C)[C@H](O)[C@@H](C)[C@@H](O)[C@@H](C)[C@H](OC(C)=O)[C@@H]1C [Rifampicin, rifampicin]	0.25 (≈ 0.304 µM)	1 (≈ 1.22 µM)	0.25 to 1 (≈ 0.304 to 1.22 µM)	1 (≈ 1.22 µM)	1 (≈ 1.22 µM)	2 (≈ 2.43 µM)	0.25 (≈ 0.304 µM)	1 to 2	0.25 (≈ 0.304 µM)	1 (≈ 1.22 µM)	0.25 to 1 (≈ 0.304 to 1.22 µM)	1 (≈ 1.22 µM)	0.25 (≈ 0.304 µM)	1 (≈ 1.22 µM)	0.25 (≈ 0.304 µM)	0.25 (≈ 0.304 µM)	0.5 to 2	–	–	–	–
CC[C@H](C)[C@@H]1NC(=O)CNC(=O)[C@H](CCCNC(=N)N)NC(=O)[C@H](Cc2ccc(O)cc2)NC(=O)[C@@H]2CSSC[C@H](NC1=O)C(=O)N[C@@H](Cc1ccc(O)cc1)C(=O)N[C@@H](CCCNC(=N)N)C(=O)N[C@@H](CCCCN)C(=O)N[C@H](C(=O)N[C@@H](CCCNC(=N)N)C(N)=O)CSSC[C@H](NC(=O)[C@H](Cc1c[nH]c3ccccc13)NC(=O)[C@@H](N)CCCCN)C(=O)N[C@@H](Cc1ccccc1)C(=O)N[C@@H](CCCNC(=N)N)C(=O)N[C@@H](C(C)C)C(=O)N2 [Tachyplesin 3, tachyplesin 3] (H-KWCFRVCYRGICYRKCR-NH2; disulfide 3-16, 7-12 (inferred); N-terminus and C-terminus assumed)	–	–	–	–	–	–	–	–	–	–	–	–	–	–	–	–	–	2 (≈ 0.895 µM)	4 (≈ 1.79 µM)	2 (≈ 0.895 µM)	MIC values (range) (clinical isolates of SA): 1 to 8 µg/mL; MBC 90% [4]: 4 µg/mL (≈ 1.79 µM)
CN(C)c1cc(NC(=O)CNC(C)(C)C)c(O)c2c1C[C@H]1C[C@H]3[C@H](N(C)C)C(O)=C(C(N)=O)C(=O)[C@@]3(O)C(O)=C1C2=O [Tigecycline, tigecycline]	0.5 (≈ 0.854 µM)	0.5 (≈ 0.854 µM)	0.5 to 1 (≈ 0.854 to 1.71 µM)	0.5 (≈ 0.854 µM)	1 (≈ 1.71 µM)	1 (≈ 1.71 µM)	0.25 (≈ 0.427 µM)	1 to 2	0.5 (≈ 0.854 µM)	0.5 (≈ 0.854 µM)	0.5 to 1 (≈ 0.854 to 1.71 µM)	0.5 (≈ 0.854 µM)	1 (≈ 1.71 µM)	1 (≈ 1.71 µM)	0.25 (≈ 0.427 µM)	0.25 (≈ 0.427 µM)	1 to 2	–	–	–	–
CN[C@H](CC(C)C)C(=O)N[C@H]1C(=O)N[C@@H](CC(N)=O)C(=O)N[C@H]2C(=O)N[C@H]3C(=O)N[C@H](C(=O)N[C@H](C(=O)O)c4cc(O)cc(O)c4-c4cc3ccc4O)[C@H](O)c3ccc(c(Cl)c3)Oc3cc2cc(c3O[C@@H]2O[C@H](CO)[C@@H](O)[C@H](O)[C@H]2O[C@H]2C[C@](C)(N)[C@H](O)[C@H](C)O2)Oc2ccc(cc2Cl)[C@H]1O [Vancomycin, vancomycin]	1 (≈ 0.69 µM)	2 (≈ 1.38 µM)	0.5 to 2 (≈ 0.345 to 1.38 µM)	2 (≈ 1.38 µM)	2 (≈ 1.38 µM)	4 (≈ 2.76 µM)	–	–	1 (≈ 0.69 µM)	1 (≈ 0.69 µM)	0.5 to 1 (≈ 0.345 to 0.69 µM)	1 (≈ 0.69 µM)	1 (≈ 0.69 µM)	2 (≈ 1.38 µM)	–	–	–	–	–	–	MIC (S. aureus ATCC 9144; Staphylococcus aureus, ATCC9144, 18 h): 2 µg/mL (≈ 1.38 µM); MBC Range [2]: 1 to 4 µg/mL; MIC (S. aureus ATCC 6538P; Staphylococcus aureus, ATCC6538P, 18 h): 1 µg/mL (≈ 0.69 µM); MIC (S. aureus ATCC 25923; Staphylococcus aureus, ATCC25923, 18 h): 1 µg/mL (≈ 0.69 µM); MBC Range [4]: 1 to 4 µg/mL
FLPLIGRVLSGIL-NH2 (C-terminus assumed) [Temporin A, temporin A]	–	–	–	–	–	–	–	16 to 64	–	–	–	–	–	–	–	–	16 to 64	16	32	32	MIC (S. aureus ATCC 9144; [11]): 16 µg/mL; MIC 50% [2, 12]: 8 µg/mL; MIC 90% [2, 12]: 16 µg/mL; MIC Range [2, 12]: 8 to 32 µg/mL; MIC (S. aureus ATCC 6538P; [13]): 8 µg/mL; MIC (S. aureus ATCC 25923; [14]): 16 µg/mL; MBC 90% [4]: 64 µg/mL; MIC 50% [4, 10]: 8 µg/mL; MIC 90% [4, 10]: 16 µg/mL; MIC Range [4, 10]: 8 to 32 µg/mL
GLFDIIKKIAESF-NH2 (C-terminus assumed) [Aurein 1.2, aurein 1.2]	–	–	–	–	–	–	–	64 to 128	–	–	–	–	–	–	–	–	64 to 128	64	128	64	MIC (S. aureus ATCC 9144; [11]): 64 µg/mL; MIC 50% [2, 12]: 64 µg/mL; MIC 90% [2, 12]: 128 µg/mL; MIC Range [2, 12]: 32 to 128 µg/mL; MIC (S. aureus ATCC 6538P; [13]): 64 µg/mL; MIC (S. aureus ATCC 25923; [14]): 64 µg/mL; MBC 90% [4]: 128 µg/mL; MIC 50% [4, 10]: 64 µg/mL; MIC 90% [4, 10]: 128 µg/mL; MIC Range [4, 10]: 32 to 128 µg/mL
GLFDVIKKVASVIGGL-NH2 (C-terminus assumed) [Citropin 1.1, citropin 1.1]	–	–	–	–	–	–	–	16 to 64	–	–	–	–	–	–	–	–	16 to 64	16	64	16	MIC (S. aureus ATCC 9144; [11]): 32 µg/mL; MIC 50% [2, 12]: 16 µg/mL; MIC 90% [2, 12]: 32 µg/mL; MIC Range [2, 12]: 8 to 32 µg/mL; MIC (S. aureus ATCC 6538P; [13]): 8 µg/mL; MIC (S. aureus ATCC 25923; [14]): 32 µg/mL; MBC 90% [4]: 64 µg/mL; MIC 50% [4, 10]: 16 µg/mL; MIC 90% [4, 10]: 32 µg/mL; MIC Range [4, 10]: 8 to 32 µg/mL
GVIDAAKKVVNVLKNLF-NH2 (C-terminus assumed) [Uperin 3.6, uperin 3.6]	–	–	–	–	–	–	–	–	–	–	–	–	–	–	–	–	–	128	128	128	MBC 90% [4]: 128 µg/mL
